The values below are quoted from earlier work in patent US11678659B2, “Use as rodenticides of compounds that inhibit blood coagulation” (priority 2014, dated 2023).

One data set has as its target T1, thrombin receptor PAR-1 (Homo sapiens, UniProt P25116).
T1 construct: endogenous in cells; host or cells: study subjects (in vivo), platelets
T1 sequence (P25116 22-425): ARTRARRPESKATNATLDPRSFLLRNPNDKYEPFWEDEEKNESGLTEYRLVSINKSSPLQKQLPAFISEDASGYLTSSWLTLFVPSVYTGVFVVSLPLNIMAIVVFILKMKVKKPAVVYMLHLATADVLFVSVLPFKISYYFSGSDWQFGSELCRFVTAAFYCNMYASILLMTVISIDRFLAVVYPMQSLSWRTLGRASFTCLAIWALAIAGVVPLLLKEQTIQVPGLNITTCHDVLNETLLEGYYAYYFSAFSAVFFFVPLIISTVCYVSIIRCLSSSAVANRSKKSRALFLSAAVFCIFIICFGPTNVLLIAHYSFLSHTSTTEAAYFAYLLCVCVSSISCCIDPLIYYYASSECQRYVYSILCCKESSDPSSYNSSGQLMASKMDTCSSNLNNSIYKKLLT

For another data set, the target named is T2, thrombin (Homo sapiens, UniProt P00734).
T2 construct: from tissue; host or cells: blood of human subjects (in vivo)
The note with it: administration for more than 35 days.

As to `Br.CCOc1cc2c(c(F)c1OCC)C(=N)N(CC(=O)c1cc(N3CCOCC3)c(OC)c(C(C)(C)C)c1)C2` [Atopaxar, 1-(3-tert-butyl-4-methoxy-5-morpholin-4-yl-phenyl)-2-(5,6-diethoxy-4-fluoro-3-imino-1H-isoindol-2-yl)ethanone-hydrobromide], the bleedings observed entry on thrombin receptor PAR-1 (one study) is “not statistically significant”. Also, on thrombin receptor PAR-1 (two phase II studies), the liver enzymes entry was “increase in liver enzymes”. Take `CCOC(=O)CN[C@@H](C(=O)N1CC[C@H]1C(=O)NCc1ccc(/C(N)=N\O)cc1)C1CCCCC1` [ximelagatran]: the liver toxicity entry at thrombin is listed as “risk of liver toxicity”.
